We go through one compound from ChEMBL document CHEMBL3832068, “DailyMed|setid=9ddd37f9-299e-4c98-91ed-deeb72c63b00 | GRIS-PEG - griseofulvin tablet, film coated|State of Florida DOH Central Pharmacy”.

One may read the AUC as concentration integrated over time. Read a low AUC as less exposure. By Cmax is commonly meant the maximum level reached in the sampled fluid or tissue. A word on the Tmax: it is the time at which the peak concentration occurs.

Data set [1] can be described thus: (§1) Mean pharmacokinetic parameters for Griseofulvin following single dose administration of unaltered 250 mg ultramicrocrystalline Griseofulvin tablets, with or without applesauce, to 24 healthy volunteers. The class given is ADME, organism-based. Details: dose 250 mg, route oral. To be noted: human, in vivo, dietary status Fasting, dosed compound id 34, dosed compound name GRISEOFULVIN, gender male and female, regimen Single dose, tissue Plasma.

For the next data set, the system named is Homo sapiens. The description is as §1. The class given is ADME, organism-based. Details: dose 250 mg, route oral. To be noted: in vivo, po, dietary status Fasting, dosed compound id 34, dosed compound name GRISEOFULVIN, gender male and female, regimen Single dose, tissue Plasma.

As for `COC1=CC(=O)C[C@@H](C)[C@]12Oc1c(Cl)c(OC)cc(OC)c1C2=O` [GRISEOFULVIN], the AUC in data set [1] (po, 250 mg) stood at 8620 ng·h/mL; in the data set with Homo sapiens, 9023.71 ng·h/mL. The Cmax in data set [1] (po, 250 mg) was 601 ng/mL; in the data set on Homo sapiens it was 672.61 ng/mL. Moreover, the Tmax worked out at 4.04 h in data set [1] (dose 250 mg, route oral) and 3.08 h in the data set on Homo sapiens (dose 250 mg).
